The source of these data is US5905076A, “6-substituted amino-4-oxa-1-azabicyclo [3,2,0] heptan-7-one derivatives as cysteine protease inhibitors” (National Research Council of Canada, priority 1997, dated 1999).

For one assay, the target named is cathepsin B (Rattus norvegicus, UniProt P00787). The experiment in a line: In vitro inhibition of cathepsin B. It is filed as biochemical. To be noted: r rat cathepsin B, substrate N-CBZ-Phe-Arg-AMC, pH 5.1, 10 min incubation at room temperature. The protocol: In vitro assay procedure for cathepsin B
cathepsin B, sequence (P00787 80-339): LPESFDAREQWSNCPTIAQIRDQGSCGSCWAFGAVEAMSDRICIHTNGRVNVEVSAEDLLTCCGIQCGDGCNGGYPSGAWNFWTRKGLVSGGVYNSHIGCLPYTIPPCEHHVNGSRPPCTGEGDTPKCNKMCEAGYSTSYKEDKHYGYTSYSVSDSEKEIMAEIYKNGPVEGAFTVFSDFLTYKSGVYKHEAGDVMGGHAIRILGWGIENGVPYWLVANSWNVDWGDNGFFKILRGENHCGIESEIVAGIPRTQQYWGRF
The compounds of formula I were tested for inhibition of cathepsin B using the known method (A. J. Barret et al., Biochem. J. 1982, 201, 189-198). To a 170 μl of enzyme-buffer mixture (enzyme: r rat cathepsin B, diluted to give approximate 10 F units/min, buffer: 56 mM sodium acetate, 1.124 mM EDTA, 10 mM DTT, pH 5.1) a 10 μL of inhibitor (dissolved in DMSO) was added. After 10 min of incubation at room temperature, a 20 μl of 5 mM substrate (N-CBZ-Phe-Arg-AMC, dissolved in DMSO) was added to initiate reaction. Reading is followed up for 10 min at the fluoroscan reader (excitation at 380 nm emission at 460 nm).
A plot of percentage of inhibition vs inhibitor concentration is obtained, and IC50 is determined using a linear regression calculations (concentration of inhibitor which will give 50% inhibition).

The target of a further assay is cathepsin L (Rattus norvegicus, UniProt P07154). The experiment in a line: In vitro inhibition of cathepsin L. In kind it is biochemical. Particulars: r rat cathepsin L, substrate N-CBZ-Phe-Arg-AMC, pH 5.0, 10 min incubation at room temperature. The protocol: In vitro assay procedure for cathepsin L
cathepsin L, sequence (P07154 114-334): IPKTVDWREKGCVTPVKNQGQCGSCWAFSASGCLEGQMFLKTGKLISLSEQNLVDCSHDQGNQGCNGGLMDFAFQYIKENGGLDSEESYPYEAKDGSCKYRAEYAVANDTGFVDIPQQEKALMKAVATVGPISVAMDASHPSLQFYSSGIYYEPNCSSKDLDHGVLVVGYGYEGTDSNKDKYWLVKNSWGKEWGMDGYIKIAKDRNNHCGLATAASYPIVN
After 10 min of incubation at room temperature, a 20 μl of 1 mM substrate (N-CBZ-Phe-Arg-AMC, dissolved in DMSO) was added to initiate reaction. Reading is followed up for 10 min at the fluoroscan reader (excitation at 380 nm emission at 460 nm).

The structures appear in SMILES notation.

Take `O=C(N[C@@H]1C(=O)N2CCO[C@H]12)OCc1ccccc1` [Example 1, (5R,6S)-6-benzyloxycarbonylamino-4-oxa-1-azabicyclo[3.2.0]heptan-7-one]: the 50% inhibitory concentration (IC50) at cathepsin B and against cathepsin L was greater than 50 µM throughout. As for `O=C(N[C@@H]1C(=O)N2CCO[C@H]12)[C@@H]1CCCN1C(=O)OCc1ccccc1` [Example 3, (5R,6S)-6-(N-benzyloxycarbonyl-L-prolyl)-amino-4-oxa-1-azabicyclo[3.2.0]heptan-7-one], the IC50 is greater than 50 µM on cathepsin B and 9.4 µM on cathepsin L.

As to `O=C(N[C@@H](Cc1ccccc1)C(=O)N[C@@H]1C(=O)N2CCO[C@H]12)OCc1ccccc1` [Example 2, (5R,6S)-6-(N-benzyloxycarbonyl-L-phenylalanyl)-amino-4-oxa-1-azabicyclo[3.2.0]heptan-7-one], the results for the IC50 at cathepsin B and on cathepsin L were 4.56 µM and 0.26 µM, respectively.

Take `CC[C@H](C)[C@H](NC(=O)OCc1ccccc1)C(=O)N[C@@H]1C(=O)N2CCO[C@H]12` [Example 4, (5R,6S)-6-(N-benzyloxycarbonyl-L-isoleucyl)-amino-4-oxa-1-azabicyclo[3.2.0]heptan-7-one]: the IC50 against cathepsin B was greater than 50 µM; on cathepsin L, 9.88 µM. The matching figures for `CC(C)C[C@H](NC(=O)OCc1ccccc1)C(=O)N[C@@H]1C(=O)N2CCO[C@H]12` [Example 6, (5R,6S)-6-(N-benzyloxycarbonyl-L-leucyl)-amino-4-oxa-1-azabicyclo[3.2,0]heptan-7-one]: 30 µM and 0.6 µM. The matching figures for `O=C(CCc1ccccc1)N[C@@H](Cc1ccccc1)C(=O)N[C@@H]1C(=O)N2CC(CBr)O[C@@H]12` (stereo partly drawn) [Example 10, (5S,6S)-6-{N-(3-phenylpropionoyl)-L-phenylalanyl}-amino-3-bromomethyl-4-oxa-1-azabicyclo[3.2.0]heptan-7-one]: 1.91 µM and 0.016 µM. As to `O=C(NC(C(=O)N[C@@H]1C(=O)N2CCO[C@H]12)c1ccccc1)OCc1ccccc1` (stereo partly drawn) [Example 7, (5R,6S)-6-(N-benzyloxycarbonyl-phenylglycyl)-amino-4-oxa-1-azabicyclo[3.2.0]heptan-7-one], at cathepsin B, the IC50 was greater than 50 µM.

Take `O=C(CCc1ccccc1)N[C@@H](Cc1ccccc1)C(=O)N[C@@H]1C(=O)N2CC(c3ccccc3)O[C@H]12` (stereo partly drawn) [Example 9, (5R,6S)-6-{N-(3-phenylpropionoyl)-L-phenylalanyl}-amino-3-phenyl-4-oxa-1-azabicyclo[3,2.0]heptan-7-one]: the IC50 at cathepsin B and against cathepsin L was greater than 50 µM throughout. At cathepsin B, `O=C(N[C@@H](Cc1ccccc1)C(=O)N[C@@H]1C(=O)N2CCO[C@@H]12)OCc1ccccc1` [Example 8, (5S,6S)-6-(N-benzyloxycarbonyl-L-phenylalanyl)-amino-4-oxa-1-azabicyclo[3.2.0]heptan-7-one] returned an IC50 of 12.2 µM.

`C[C@H](NC(=O)OCc1ccccc1)C(=O)N[C@@H]1C(=O)N2CCO[C@H]12` [Example 5, (5R,6S)-6-(N-benzyloxycarbonyl-L-alanyl)-amino-4-oxa-1-azabicyclo[3.2,0]heptan-7-one]: the IC50 against cathepsin B was greater than 50 µM.
